In patent publication US20250262336A1, “[177LU] LUTETIUM-PSMA I&T COMPOSITION AND DOSIMETRY, KIT, METHOD OF MAKING, AND METHOD OF USING THEREOF” (Curium US LLC, priority 2023, published 2025):

Assay: Cycle 1 normal organ dosimetry (SPECT/CT, TIACs, OLINDA 2.2.3)
Format: in vivo, human
Details: for Absorbed Dose in Cycle 1, Mean / Absorbed Dose in Cycle 1, max / Absorbed Dose in Cycle 1, min: N = 16 patients imaged at cycle 1 and 3; for Absorbed Dose, Mean / Absorbed Dose, max / Absorbed Dose, median / Absorbed Dose, min: Cycle 1, n = 26
Description: This Example presents the biodistribution, dosimetry, and pharmacokinetics (PK) results of a PK/Dosimetry sub-study performed as part of a Phase III trial. Twenty-seven (27) patients were administered a target activity of 7.4±10% GBq of ^177Lu-PSMA-I&T and underwent single photon emission computed tomography (SPECT)/computed tomography (CT) imaging at four timepoints (4 h, 24 h, 48 h, and 168 h). Image data was analysed to compute time-activity curves (TACs) and subsequently time-integrated activity coefficients (TIACs) in each organ of interest and in organs showing appreciable and meaningful ^177Lu-PSMA-I&T activity. Organ Level Internal Dose Assessment (OLINDA 2.2.3) was used to compute organ and whole body absorbed radiation doses for each patient.
All participating sites underwent a rigorous site setup process during which all dose calibrators, scanners, and gamma counters used in the sub-study were calibrated. Sites were allowed to enroll patients in the sub-study only after the completion and approval of all site setup processes by Invicro. Patients underwent SPECT/CT imaging, with anatomical coverage typically extending from the salivary glands to the pelvis, following the administration of a targeted 7.4±10% GBq of ^177Lu-PSMA-I&T at cycle 1. SPECT/CT imaging was performed at four timepoints: 4 h, 24 h, 48 h, and 168 h post-injection. Additionally, a subset of patients imaged at Cycle 1 (16 out of 27), were also imaged at Cycle 3 (Table 2).
In general, raw projection data was acquired into a 128×128 matrix with medium energy general purpose (MEGP) collimation using a step and shoot acquisition mode, acquiring 60 projections per detector (180 degrees rotation per detector), 20 seconds per projection, with an acquisition zoom of 1.0, and a 20% (±10%) energy window centered over 208 keV.
A low-dose CT scan was performed prior to beginning the SPECT scan for attenuation correction. Sites were instructed to use the Institutional standard parameters for acquisition of the low-dose CT. Institutional standard reconstruction parameters were used. Scatter correction was required to be applied using a 20% (±10%) scatter window centered over 170 keV.
The imaging data was analyzed using Invicro's VivoQuant software, a validated software used in a 21 CFR § 11-compliant workflow. The general quantification approach was based on the principles detailed in the Medical Internal Radiation Dose (MIRD) Pamphlet No. 16, No 23, and No 26 as appropriate.
SPECT images were calibrated in units of Becquerel (Bq) using a calibration factor derived from a source of known activity, measured during site set up with the same acquisition and reconstruction parameters employed for patient imaging. A patient-specific calibration factor was also derived at each clinical time point after acquisition of the patient SPECT/CT. As a quality control measure, if the patient-specific calibration factor differed by more than 10% from the site set up calibration factor, an investigation was conducted.
Volume of interest (VOI) (kidneys, bladder, liver, lumbar vertebrae L2-L4, lacrimal glands, salivary glands [parotid and submandibular glands], and whole body) were delineated on each dataset by a trained image analyst. […] Organs were segmented either by drawing the entire contour of the organ, or by placing a sphere in a representative region of the organ and then multiplying by the organ's effective mass (based on patient's height and weight). Segmentation methods for each organ are specified in Table 3 and were consistently applied to each patient.
Clearance of the radiopharmaceutical was derived from a data-appropriate fit of each organ's TAC. Depending on the TAC's shape, the data was fitted with the sum of one, two, or three exponentials, or using a rise and fall model. Fitting was performed with in-house Python software. TIACs were calculated through analytical integration of the curve fit extrapolated to infinity. […]

[1] = cycle 1, target 7.4±10% GBq, mean±SD, patient 42-030 excluded

Absorbed Dose in Cycle 1, Mean (Prostate): 0.02 Gy/GBq | Absorbed Dose in Cycle 1, max (Prostate): 0.07 Gy/GBq | Absorbed Dose in Cycle 1, min (Prostate): 0.01 Gy/GBq | Absorbed Dose, Mean (Rectum): 0.44 Gy/GBq | Absorbed Dose, max (Rectum): 1.46 Gy/GBq | Absorbed Dose, median (Rectum): 0.39 Gy/GBq | Absorbed Dose, min (Rectum): 0.01 Gy/GBq | Absorbed Dose in Cycle 1, Mean (Rectum): 0.50 Gy/GBq | Absorbed Dose in Cycle 1, max (Rectum): 1.46 Gy/GBq | Absorbed Dose in Cycle 1, min (Rectum): 0.01 Gy/GBq | Absorbed Dose, Mean (Red Marrow): 0.08 Gy/GBq | Absorbed Dose, max (Red Marrow): 0.49 Gy/GBq | Absorbed Dose, median (Red Marrow): 0.03 Gy/GBq | Absorbed Dose, min (Red Marrow): 0.00 Gy/GBq | Absorbed Dose in Cycle 1, Mean (Red Marrow): 0.05 Gy/GBq | Absorbed Dose in Cycle 1, max (Red Marrow): 0.28 Gy/GBq | Absorbed Dose in Cycle 1, min (Red Marrow): 0.00 Gy/GBq | Absorbed Dose, Mean (Right Colon): 0.25 Gy/GBq | Absorbed Dose, max (Right Colon): 0.82 Gy/GBq | Absorbed Dose, median (Right Colon): 0.22 Gy/GBq | Absorbed Dose, min (Right Colon): 0.01 Gy/GBq | Absorbed Dose in Cycle 1, Mean (Right Colon): 0.28 Gy/GBq | Absorbed Dose in Cycle 1, max (Right Colon): 0.82 Gy/GBq | Absorbed Dose in Cycle 1, min (Right Colon): 0.01 Gy/GBq | Absorbed Dose, Mean (Salivary Glands): 0.19 Gy/GBq | Absorbed Dose, max (Salivary Glands): 0.80 Gy/GBq | Absorbed Dose, median (Salivary Glands): 0.15 Gy/GBq | Absorbed Dose, min (Salivary Glands): 0.03 Gy/GBq | Absorbed Dose in Cycle 1, Mean (Salivary Glands): 0.17 Gy/GBq | Absorbed Dose in Cycle 1, max (Salivary Glands): 0.80 Gy/GBq | Absorbed Dose in Cycle 1, min (Salivary Glands): 0.03 Gy/GBq | Absorbed Dose, Mean (Small intestine): 0.05 Gy/GBq | Absorbed Dose, max (Small intestine): 0.15 Gy/GBq | Absorbed Dose, median (Small intestine): 0.04 Gy/GBq | Absorbed Dose, min (Small intestine): 0.01 Gy/GBq | Absorbed Dose in Cycle 1, Mean (Small intestine): 0.06 Gy/GBq | Absorbed Dose in Cycle 1, max (Small intestine): 0.15 Gy/GBq | Absorbed Dose in Cycle 1, min (Small intestine): 0.01 Gy/GBq | Absorbed Dose, Mean (Spleen): 0.03 Gy/GBq | Absorbed Dose, max (Spleen): 0.11 Gy/GBq | Absorbed Dose, median (Spleen): 0.02 Gy/GBq | Absorbed Dose, min (Spleen): 0.01 Gy/GBq | Absorbed Dose in Cycle 1, Mean (Spleen): 0.03 Gy/GBq | Absorbed Dose in Cycle 1, max (Spleen): 0.11 Gy/GBq | Absorbed Dose in Cycle 1, min (Spleen): 0.01 Gy/GBq | Absorbed Dose, Mean (Stomach Wall): 0.02 Gy/GBq | Absorbed Dose, max (Stomach Wall): 0.07 Gy/GBq | Absorbed Dose, median (Stomach Wall): 0.01 Gy/GBq | Absorbed Dose, min (Stomach Wall): 0.00 Gy/GBq | Absorbed Dose in Cycle 1, Mean (Stomach Wall): 0.02 Gy/GBq | Absorbed Dose in Cycle 1, max (Stomach Wall): 0.07 Gy/GBq | Absorbed Dose in Cycle 1, min (Stomach Wall): 0.00 Gy/GBq | Absorbed Dose, Mean (Testes): 0.01 Gy/GBq | Absorbed Dose, max (Testes): 0.07 Gy/GBq | Absorbed Dose, median (Testes): 0.01 Gy/GBq | Absorbed Dose, min (Testes): 0.00 Gy/GBq | Absorbed Dose in Cycle 1, Mean (Testes): 0.01 Gy/GBq | Absorbed Dose in Cycle 1, max (Testes): 0.07 Gy/GBq | Absorbed Dose in Cycle 1, min (Testes): 0.00 Gy/GBq | Absorbed Dose, Mean (Thymus): 0.01 Gy/GBq | Absorbed Dose, max (Thymus): 0.07 Gy/GBq | Absorbed Dose, median (Thymus): 0.01 Gy/GBq | Absorbed Dose, min (Thymus): 0.00 Gy/GBq | Absorbed Dose in Cycle 1, Mean (Thymus): 0.01 Gy/GBq | Absorbed Dose in Cycle 1, max (Thymus): 0.07 Gy/GBq | Absorbed Dose in Cycle 1, min (Thymus): 0.00 Gy/GBq | Absorbed Dose, Mean (Thyroid): 0.01 Gy/GBq | Absorbed Dose, max (Thyroid): 0.07 Gy/GBq | Absorbed Dose, median (Thyroid): 0.01 Gy/GBq | Absorbed Dose, min (Thyroid): 0.00 Gy/GBq | Absorbed Dose in Cycle 1, Mean (Thyroid): 0.01 Gy/GBq | Absorbed Dose in Cycle 1, max (Thyroid): 0.07 Gy/GBq | Absorbed Dose in Cycle 1, min (Thyroid): 0.00 Gy/GBq | Absorbed Dose, Mean (Total Body): 0.02 Gy/GBq | Absorbed Dose, max (Total Body): 0.09 Gy/GBq | Absorbed Dose, median (Total Body): 0.02 Gy/GBq | Absorbed Dose, min (Total Body): 0.01 Gy/GBq | Absorbed Dose in Cycle 1, Mean (Total Body): 0.02 Gy/GBq | Absorbed Dose in Cycle 1, max (Total Body): 0.09 Gy/GBq | Absorbed Dose in Cycle 1, min (Total Body): 0.01 Gy/GBq | Absorbed Dose, Mean (Urinary Bladder wall): 0.41 Gy/GBq | Absorbed Dose, max (Urinary Bladder wall): 0.50 Gy/GBq | Absorbed Dose, median (Urinary Bladder wall): 0.41 Gy/GBq | Absorbed Dose, min (Urinary Bladder wall): 0.33 Gy/GBq | Absorbed Dose in Cycle 1, Mean (Urinary Bladder wall): 0.40 Gy/GBq | Absorbed Dose in Cycle 1, max (Urinary Bladder wall): 0.47 Gy/GBq | Absorbed Dose in Cycle 1, min (Urinary Bladder wall): 0.33 Gy/GBq | mean red marrow absorbed dose, remaining 20 patients (cycle 1, excluding six patients with unusually high marrow doses and the patient with a superscan): 0.02±0.02 Gy/GBq | mean red marrow (bone marrow) absorbed radiation dose (cycle 1, image-based method (L2-L4), mean±SD, patient 42-030 excluded): 0.08±0.12 Gy/GBq | absorbed radiation dose per gram of tissue, kidneys [1]: 0.41±0.15 Gy/GBq | absorbed radiation dose per gram of tissue, lacrimal glands [1]: 0.40±0.36 Gy/GBq | absorbed radiation dose per gram of tissue, left colon [1]: 0.47±0.31 Gy/GBq | absorbed radiation dose per gram of tissue, rectum [1]: 0.44±0.30 Gy/GBq | absorbed radiation dose per gram of tissue, urinary bladder [1]: 0.41±0.05 Gy/GBq | absorbed radiation dose per gram of tissue, salivary glands (cycle 1, target 7.4±10% GBq, mean±SD, patients 42-030 and 12-004 excluded): 0.19±0.16 Gy/GBq
Structure (SMILES): O=C(O)CC[C@H](NC(=O)N[C@@H](CCCCNC(=O)CCCCCCC(=O)NCCCC[C@@H](NC(=O)[C@@H](Cc1ccccc1)NC(=O)[C@@H](Cc1ccc(O)c(I)c1)NC(=O)CC[C@H](C(=O)O)N1CCN(CC(=O)O)CCN(CC(=O)O)CCN(CC(=O)O)CC1)C(=O)O)C(=O)O)C(=O)O [^177Lu-PSMA-I&T, (3S,7 S,26R,29R,32R,37R)-29-benzyl-32-(4-hydroxy-3-iodobenzyl)-5,13,20,28,31,34-hexaoxo-37-(4,7,10-tris(carboxymethyl)-1,4,7,10-tetraazacyclododecan-1-yl)-4,6,12,21,27,30,33-heptaazaheptatriacontane-1,3,7,26,37-pentacarboxylic acid; lutetium-177 (III), metal not drawn]
